In ChEMBL document CHEMBL5154893, “Design, Synthesis, and Biological Evaluation of Potent 20S Proteasome Activators for the Potential Treatment of α-Synucleinopathies” (J Med Chem, 2022):

Tests used:
[1] = molecular target: T1, 20S proteasome (Homo sapiens) (UniProt P49721+P20618+P28074+P28062+P28065+P28072+P25786+P25787+P25788+P25789+P28066+P60900+O14818+Q8TAA3+P40306+A5LHX3+P49720+P28070+Q99436); assay: Activation of human 20S proteosome assessed as substrate degradation using Suc-LLVY-AMC/Z-LLE-AMC/Boc-LLR-AMC as flurogenic substrate preincubated for 15 mins followed by substrate addition and measured after 1 hr by spectrometric analysis; format: protein-complex assay
[2] = molecular target: T1, 20S proteasome (Homo sapiens); assay: Activation of human 20S proteosome at trypsin-like site assessed as maximum fold change in substrate degradation using Boc-LLR-AMC as flurogenic substrate preincubated for 15 mins followed by substrate addition and measured after 1 hr by spectrometric analysis relative to control; format: protein-complex assay; settings: filed as activator
[3] = molecular target: T1, 20S proteasome (Homo sapiens); assay: Activation of human 20S proteosome assessed as maximum fold change in substrate degradation using Suc-LLVY-AMC/Z-LLE-AMC/Boc-LLR-AMC as flurogenic substrate preincubated for 15 mins followed by substrate addition and measured after 1 hr by spectrometric analysis relative to control; format: protein-complex assay; settings: filed as activator
[4] = molecular target: T1, 20S proteasome (Homo sapiens); assay: Activation of human 20S proteosome at chymotrypsin like site assessed as substrate degradation using Suc-LLVY-AMC as flurogenic substrate preincubated for 15 mins followed by substrate addition and measured after 1 hr by spectrometric analysis; format: protein-complex assay
[5] = molecular target: T1, 20S proteasome (Homo sapiens); assay: Activation of human 20S proteosome at trypsin-like site assessed as substrate degradation using Boc-LLR-AMC as flurogenic substrate preincubated for 15 mins followed by substrate addition and measured after 1 hr by spectrometric analysis; format: protein-complex assay
[6] = molecular target: T1, 20S proteasome (Homo sapiens); assay: Activation of human 20S proteosome at caspase-like site assessed as substrate degradation using Z-LLE-AMC as flurogenic substrate preincubated for 15 mins followed by substrate addition and measured after 1 hr by spectrometric analysis; format: protein-complex assay
Homo sapiens [7] = species: Homo sapiens; assay: Activation of human 20S-proteosome mediated degradation of full length wild type alpha-synuclein at 15 uM incubated for 45 mins by Western blot analysis relative to control; settings: filed as activator
Homo sapiens [8] = species: Homo sapiens; assay: Activation of human 20S-proteosome mediated full length alpha-synuclein degradation by measuring remaining protein at 15 uM incubated for 45 mins by Western blot analysis relative to control
[9] = molecular target: T1, 20S proteasome (Homo sapiens); assay: Activation of human 20S proteosome at chymotrypsin like site assessed as maximum fold change in substrate degradation using Suc-LLVY-AMC as flurogenic substrate preincubated for 15 mins followed by substrate addition and measured after 1 hr by spectrometric analysis relative to control; format: protein-complex assay; settings: filed as activator
Homo sapiens [10] = species: Homo sapiens; assay: Activation of human 26S proteosome assessed as increase in fold change in proteolytic degradation using SUC-ANW-AMC/Z-LLE-AMC/Boc-LRRAMC as flurogenic substrate at 80 uM preincubated for 15 mins followed by substrate addition and measured after 1 hr by spectrometric analysis relative to control; settings: filed as activator
[11] = molecular target: T1, 20S proteasome (Homo sapiens); assay: Activation of human 20S proteosome at caspase-like site assessed as maximum fold change in substrate degradation using Z-LLE-AMC as flurogenic substrate preincubated for 15 mins followed by substrate addition and measured after 1 hr by spectrometric analysis relative to control; format: protein-complex assay; settings: filed as activator
HEK293T [12] = assay: Activation of 20S proteasome mediated full length alpha-synuclein A53T mutant degradation expressed in HEK293T cells assessed as residual protein at 5 uM incubated for 24 hrs by Western blot analysis relative to control; format: cell-based; settings: Homo sapiens
Homo sapiens [13] = species: Homo sapiens; assay: Activation of human 20S-proteosome mediated degradation of full length wild type alpha-synuclein at 10 uM incubated for 45 mins by Western blot analysis relative to control
Homo sapiens [14] = species: Homo sapiens; assay: Activation of human 20S-proteosome mediated full length alpha-synuclein degradation by measuring remaining protein at 10 uM incubated for 45 mins by Western blot analysis relative to control
HEK-293T = assay: Cytotoxicity in human HEK293T cells assessed as reduction in cell viability at 15 uM incubated for 16 hrs by CellTiter-glo assay; format: toxicity, cell-based
Homo sapiens [15] = species: Homo sapiens; assay: Activation of human 20S-proteosome mediated full length alpha-synuclein degradation by measuring remaining protein at 2.5 uM incubated for 45 mins by Western blot analysis relative to control
Homo sapiens [16] = species: Homo sapiens; assay: Activation of human 20S-proteosome mediated full length alpha-synuclein degradation by measuring remaining protein at 5 uM incubated for 45 mins by Western blot analysis relative to control
HEK293T [17] = assay: Activation of 20S proteasome mediated full length alpha-synuclein A53T mutant degradation expressed in HEK293T cells assessed as residual protein at 15 uM incubated for 24 hrs by Western blot analysis relative to control; format: cell-based; settings: Homo sapiens, filed as activator

Row | SMILES | EC200 ([1]; filed as activator) | fold change (FC) [2] | fold change (FC) [3] | EC200 [4] | EC200 ([5]; filed as activator) | EC200 [6] | fold change (FC) [9] | EC200 ([4]; filed as activator) | EC200 [5] | EC200 [1] | fold change (FC) [11] | EC200 ([6]; filed as activator) | other results
1 | O=C(CCN1c2ccccc2Sc2ccc(Cl)cc21)Nc1ccccc1 | 40 µM | 2 | 2.5 | > 80 µM | 80 µM | > 80 µM | – | – | – | – | – | – | –
2 | CN(C)CCCN1c2ccccc2Sc2ccc(Cl)cc21 | 13.5 µM | – | 4 | – | – | > 80 µM | 8 | 7 µM | > 80 µM | – | – | – | Activity (Homo sapiens [7]): 80%; Activity (Homo sapiens [8]; filed as activator): 34%; fold change (FC) (Homo sapiens [10]): 2
3 | CN(C)C(=O)CCN1c2ccccc2Sc2ccc(Cl)cc21 | – | – | – | > 80 µM | – | > 80 µM | – | – | > 80 µM | > 80 µM | – | – | –
4 | Nc1cccc(CN2c3ccccc3Sc3ccc(Cl)cc32)c1 | 3.6 µM | 10 | 8 | – | 9.2 µM | – | 9 | 6.5 µM | – | – | 10 | 3.8 µM | –
5 | Oc1ccc(CN2c3ccccc3Sc3ccc(Cl)cc32)cc1 | – | – | – | > 80 µM | – | > 80 µM | – | – | > 80 µM | > 80 µM | – | – | –
6 | COc1cccc(CN2c3ccccc3Sc3ccc(Cl)cc32)c1 | 1.5 µM | 2 | 4 | > 80 µM | 5.4 µM | – | – | – | – | – | 4 | 1.3 µM | –
7 | O=C(CCN1c2ccccc2Sc2ccc(Cl)cc21)N(c1ccc(F)cc1)c1ccc(F)cc1 | 0.4 µM | 6 | 11 | – | 0.3 µM | – | 9.4 | 0.7 µM | – | – | 9.4 | 1.8 µM | Activity (HEK293T [12]): 67%; Activity (Homo sapiens [13]): 73%; Activity (Homo sapiens [8]): 19%; Activity (Homo sapiens [14]): 27%; Activity (HEK-293T): > 80%; Activity (Homo sapiens [15]): 69%; Activity (Homo sapiens [16]): 51%
8 | NC(=O)CCCCN1c2ccccc2Sc2ccc(Cl)cc21 | – | – | – | > 80 µM | – | > 80 µM | – | – | > 80 µM | > 80 µM | – | – | –
9 | CC(C)(C)OC(=O)c1ccc(CN2c3ccccc3Sc3ccc(Cl)cc32)cc1 | – | – | – | > 80 µM | – | > 80 µM | – | – | > 80 µM | > 80 µM | – | – | –
10 | O=[N+]([O-])c1cccc(CN2c3ccccc3Sc3ccc(Cl)cc32)c1 | 1.1 µM | 8 | 8 | – | 1.6 µM | – | 9 | 1.1 µM | – | – | 12 | 1.2 µM | –
11 | COC(=O)c1ccc(CN2c3ccccc3Sc3ccc(Cl)cc32)cc1 | 1.4 µM | 15 | 9 | – | 2.6 µM | – | 1.2 | 1.9 µM | – | – | 7 | 2.7 µM | Activity (Homo sapiens [8]; filed as activator): 33%; fold change (FC) (Homo sapiens [10]): 2; Activity (HEK293T [17]): 25%
12 | CC(=O)Oc1ccc(CN2c3ccccc3Sc3ccc(Cl)cc32)cc1 | – | – | – | > 80 µM | – | > 80 µM | – | – | > 80 µM | > 80 µM | – | – | –
13 | Clc1ccc2c(c1)N(Cc1ccccc1)c1ccccc1S2 | 1.5 µM | 2 | 2 | – | 3.1 µM | > 80 µM | 3 | 2.8 µM | – | – | – | – | –
14 | N#CCCCCN1c2ccccc2Sc2ccc(Cl)cc21 | – | – | – | > 80 µM | – | > 80 µM | – | – | > 80 µM | > 80 µM | – | – | –
15 | COC(=O)c1cccc(CN2c3ccccc3Sc3ccc(Cl)cc32)c1 | 2.4 µM | 8 | 6 | – | 1.9 µM | – | 6 | 2.4 µM | – | – | 4 | 9.7 µM | –
16 | CN(C(=O)CCN1c2ccccc2Sc2ccc(Cl)cc21)c1ccc(F)cc1 | – | – | – | > 80 µM | – | > 80 µM | – | – | > 80 µM | > 80 µM | – | – | –
17 | CCOC(=O)[C@]1(c2ccccc2)N=C(c2ccc(OC)cc2)N(Cc2ccccc2)[C@@H]1c1ccc(NCc2ccccc2)cc1 | – | – | – | – | – | – | – | – | – | – | – | – | Activity (Homo sapiens [8]): 22%
